{
  "source": "patent US20230288433A1",
  "about": "“DETECTION OF PHOSPHOINOSITIDES IN BLOOD CELLS AS A BIOMARKER FOR ALPHA SYNUCLEIN ASSOCIATED PATHOLOGIES AND A METHOD OF TREATMENT OF PARKINSON'S DISEASE AND THE RELATED NEURODEGENERATIONS” (YISSUM RESEARCH DEVELOPMENT COMPANY OF THE HEBREW …, priority 2021, published 2023)",
  "format_in_all_cases": "cell-based",
  "key": {"α-Syn": {"tested_on": "α-Syn", "assay": "α-Syn expression by qPCR in Tet-on inducible SH-SY5Y cells", "conditions": "with versus without doxycycline for 72 hours", "method": "FIGS. 4A-4J include micrographs and graphs showing that α-Syn effect to elongate axons and collaterals is mediated through PI4,5P2. (4A) PI4,5P2 levels determined by FACS, in HEK 293T cells, following 48 hours from cell transfection with α-Syn and/or Sj-1 phosphatase, as indicated. Mean±SD of two independent experiments, n>3,000 cells in each treatment; P<0.05, one-way ANOVA. (4B) PI4,5P2 levels determined by FACS in HEK 293T cells transfected with α-Syn and/or PIPKIγ as indicated. Mean±SD of two independent experiments, n>3,000 cells in each treatment; P<0.05, one-way ANOVA. […] GFP signal was captured by direct fluorescence. […] (4E) Total length of collaterals per axon (in μm); and (4F) PI4,5P2 levels within the axon and its collaterals (per axon area) quantified by Fiji program. […] Western blot showing mCherry Nir2 signal detected with anti Nir2 ab (Abcam). PI4,5P2 levels determined by FACS. […] PI4,5P2 levels determined by FACS. […] (4I) Quantitative PCR (qPCR) detection of α-Syn following its induced expression in SH-SYSY cells without and with the addition of doxycycline for 72 hours. α-Syn mRNA levels normalized to the levels of G6PD gene detected in the same sample. (4J) Quantitative detection of NIR2 expression by qPCR in these cells. […]"}, "SH-SY5Y cells [1]": {"tested_on": "SH-SY5Y cells", "assay": "PI4,5P2 levels by FACS in Tet-on inducible α-Syn SH-SY5Y cells", "method": "Analysis was performed as previously described with some modifications. Cells were suspended and washed in clear DMEM; followed by 20 minutes fixation in 2% (v/w) paraformaldehyde at 4° C.; and permeabilization in 0.2% saponin in 1% BSA (w/v) for 15 minutes at 4° C. Cells were then incubated with anti α-Syn antibody (MJFR1, 1:2,000) and anti PI4,5P2 antibody (1:200, see Table 2) for 90 minutes at 4° C. with gentle rolling; washed and probed with the respective secondary antibody for 30 minutes at room temperature. FACS analysis in SK-mel2 cells was performed 7-14 days following viral transduction. During this time effective α-Syn knockdown was confirmed using rt-PCR and Western blotting. HEK 293T cells were analyzed by FACS forty-eight hours from transfection. Analyses were performed using BD LSRFortessa Cell Analyzer, equipped with 5 lasers (355, 405, 488, 561 and 640 nm) and the FLOWJO, LLC software. Mock-GFP, Sj-1 or PIPKIγ expression were directly detected at 488 nm based on a GFP-tag. […] A total of 2,000-4,000 gated cells were counted in each experiment unless indicated differently.\nTo test the mechanism through which α-Syn increases cellular PI4,5P2 levels, the inventors tested the potential involvement of Nir2-expression. […] 72 hours post DNA transfection, PI4,5P2 levels were determined by FACS. […] PI4,5P2 levels were determined by FACS following 3 days of incubation with doxycycline. […]"}, "SH-SY5Y cells [2]": {"tested_on": "SH-SY5Y cells", "assay": "568-Tf endocytosis by ICC in Tet-on inducible α-Syn SH-SY5Y cells", "conditions": "doxycycline 72 hours; cells not induced set at 100%"}},
  "data": [
    {"smiles": "C[C@H]1c2cccc(O)c2C(=O)C2=C(O)[C@]3(O)C(=O)C(C(N)=O)=C(O)[C@@H](N(C)C)[C@@H]3[C@@H](O)[C@@H]21", "note": "[doxycycline]", "values": [
      {"measurement": "α-Syn levels of expression", "setting": "α-Syn", "result": "~25", "unit": "folds"},
      {"measurement": "PI4,5P2 signal", "setting": "SH-SY5Y cells [1]; FACS after 3 days of doxycycline, shCntrl cells", "result": "~146", "unit": "%"},
      {"measurement": "PI4,5P2 levels", "setting": "SH-SY5Y cells [1]; doxycycline 72 hours, cells not induced set at 100%", "result": 151, "unit": "%"},
      {"measurement": "internalization of 568-Tf", "setting": "SH-SY5Y cells [2]", "result": 133, "unit": "%"}
    ]}
  ]
}
